Reference: article PMC9602407, “Purification, Identification and Molecular Docking of Immunomodulatory Peptides from the Heads of Litopenaeus vannamei” (Foods, 2022)
One block for each compound: values may come before it. Where a SMILES comes first, the peptide text is derived from it. Where no end group is shown, it is not given here.

Columns and labels:
pepsin and trypsin = test: In vitro gastrointestinal digestion stability (pepsin, then trypsin), read out as MRPR; type: in vitro ADME; conditions: for Maximal increase of MRPR through gastrointestinal digestion compared with the untreated group: 2% (w/w) pepsin pH 2.0 37 °C 2 h, then 2% (w/w) trypsin pH 7.5 37 °C 2 h, 1 mg/mL peptide
Method: The macrophages were cultured in a medium (containing 90% DMEM medium, 10% FBS, and 1% double antibody) at 37 °C and 5% CO2. The MRPR was determined following to the MTT assay used by Xu et al.. The density of the log-phase cells was adjusted to 1 × 10^5 cells/mL, and 100 μL/well of cell suspension was seeded in 96-well plates and incubated overnight in an incubator (BB-150-CO2 incubator, Thermo Scientific, Waltham, MA, USA). The perimeter of the 96-well plate was filled with PBS. The old culture medium was then discarded, 200 μL of the sample solution was added (DMEM medium was used to dissolve the sample to the desired concentration), and control and blank groups were set up with DMEM medium. After incubating for 36 h, 200 μL of medium (containing 5% MTT) was added to each well instead of the original medium and cultured in the dark for 4 h. After the supernatant was discarded, 150 μL of DMSO was added, shaken for 20 min at room temperature, and the absorbance was detected at 490 nm by a microplate reader (ELx800, BioTek Instruments, Winooski, VT, USA). The MRPR (%) was calculated using the following formula:Macrophage relative proliferation rate (%) = (A1 − A3)/(A2 − A3) × 100 (1) where A1 and A2 represented the sample solution and DMEM medium with cells (sample and control group), respectively, and A3 represented DMEM medium with no cells (blank group).
For gastrointestinal digestion stability, computer simulated gastrointestinal digestion was first performed using the PeptideCutter (https://web.expasy.org/peptide_cutter/) (accessed on 20 June 2022) with a selection of pepsin (pH > 2) and trypsin. Then, six peptides (10 mg) were dissolved in 10 mL of distilled water, the pH was adjusted to pH 2.0 with 1 M HCl, and then 2% (w/w) pepsin was added and incubated at 37 °C for 2 h to simulate gastric digestion. The pH of the gastric digest was then adjusted to 5.3 with 0.9 M NaHCO3 solution and to pH 7.5 with 1 M NaOH solution. Following this, 2% (w/w) trypsin was added and incubated at 37 °C for 2 h to simulate intestinal digestion. After digestion, the digest was inactivated in a water bath at 100 °C for 10 min, centrifuged at 10,000 r/min for 10 min, and the supernatant was freeze-dried to obtain the gastric intestinal digest of each of the six synthetic peptides. The MRPR was determined using the sample without any treatment as the control.

splenic lymphocytes = tested on: splenic lymphocytes; set-up: method as in doi:10.1016/j.jff.2020.103887; conditions: 100 μg/mL; cited from earlier work
TNF-α secretion = tested on: TNF-α secretion; set-up: method as in doi:10.1016/j.jff.2020.103887; conditions: 100 μg/mL; cited from earlier work
[1] = set-up: method as in doi:10.1016/j.jff.2020.103887; conditions: 100 μg/mL; cited from earlier work

Compound: RGPPP [Pseudostellaria heterophylla peptide from the literature]
Stimulation index on splenic lymphocytes (splenic lymphocytes): 1.27 | TNF-α secretion upregulated to (TNF-α secretion): 827.24 pg/mL | Cytokinesis rate increased to [1]: 123.81%

Compound: N=C(N)NCCC[C@H](NC(=O)[C@H](CCC(N)=O)NC(=O)[C@@H](N)Cc1c[nH]c2ccccc12)C(=O)O [WQR] (H-Trp-Gln-Arg-OH)
Maximal increase of MRPR through gastrointestinal digestion compared with the untreated group (pepsin and trypsin; read-out MRPR): 7.36%

Compound: CSCC[C@H](NC(=O)CNC(=O)[C@@H]1CCCN1)C(=O)N[C@@H](CCCNC(=N)N)C(=O)O [PGMR] (H-PGMR-OH)
Change of activity (MRPR) through gastrointestinal digestion, in words (pepsin and trypsin; pepsin then trypsin, 37 °C, 2 h each, versus untreated group): decreased, but was not significantly different

Second part, the compound after the results:

Increase of MRPR in the gastric digestion (pepsin and trypsin; 2% (w/w) pepsin, pH 2.0, 37 °C, 2 h, versus untreated): 11.23%
Compound: SAGFPEGF [SAGFPEGF]

Maximal increase of MRPR through gastrointestinal digestion compared with the untreated group (pepsin and trypsin; read-out MRPR): 4.17%
Compound: GPQGPPGH [GPQGPPGH]

MRPR after the action of pepsin (pepsin and trypsin; 2% (w/w) pepsin, pH 2.0, 37 °C, 2 h, read-out MRPR, mean ± SD): 143.06 ± 7.71% | MRPR after the action of trypsin (pepsin and trypsin; after pepsin step, 2% (w/w) trypsin, pH 7.5, 37 °C, 2 h, read-out MRPR, mean ± SD): 148.80 ± 0.41%
Compound: PSPFPYFT [PSPFPYFT]
